This is an account of results in ChEMBL document CHEMBL5390201, “The Natural Alkaloid (-)-N-Hydroxyapiosporamide Suppresses Colorectal Tumor Progression as an NF-κB Pathway Inhibitor by Targeting the TAK1-TRAF6 Complex” (J Nat Prod, 2023).

Calls of active or inactive are those of the source. The rule behind the calls is not given here.

Test [1] has as its system HT-29. Briefly: Induction of autophagic cell death in human HT-29 cells at 1 to 10 uM pretreated with chloroquine for 1 hr followed by compound addition and measured after 24 hrs by SRB assay. It counts as functional, cell-based. The settings on record: dose 1-10 µM. On the technique in general: The SRB assay estimates cell density from bound dye.
The subject of test [2] is HT-29. Briefly: Induction of apoptosis in human HT-29 cells assessed as viable cells at 0.25 uM incubated for 24 hrs by Annexin V-FITC/PI staining based flow cytometric analysis (reference value: 93 %). It counts as functional. The settings on record: read-out: Activity.
Test [3] deals with HT-29. Briefly: Induction of apoptosis in human HT-29 cells assessed as early apoptotic cells at 5 uM incubated for 24 hrs by Annexin V-FITC/PI staining based flow cytometric analysis (reference value: 4.39 %). It counts as functional. Background: Flow cytometry measures light scatter and fluorescence of single cells or particles in a stream.
Test [4] deals with HT-29. Briefly: Induction of cell cycle arrest in human HT-29 cells assessed as decrease in Cdc25c protein expression upto 10 uM incubated for 24 hrs by Western blot analysis. It counts as functional, cell-based. A general note: In western blotting, separated proteins are transferred to a membrane and probed.
Test [5] has as its system Mus musculus. As to the kind of experiment: In vivo inhibition of NFkappaB activation in AOM/DSS-induced inflammatory bowel disease BALB/c mouse model assessed as inhibition of serum TNF-alpha production at 5 to 10 mg/kg, ip pretreated with AOM for 7 days further replaced with DSS for 7 days and repeated for 2 times followed by every 2 days compound treatment for […] starting from day 50 by ELISA. It counts as functional, organism-based. The settings on record: dose 5-10 mg/kg, time 21.0 day.

Test [6] deals with SW-620. Briefly: Cytotoxicity against human SW620 cells assessed as decrease in cell viability incubated for 48 hrs by SRB assay. It counts as functional, cell-based. The settings on record: SW-620, 48 h.
For test [7], the target named is T1, Nuclear factor NF-kappa-B complex (Homo sapiens) (UniProt Q00653+P19838+Q04206). Briefly: Inhibition of TNF-alpha induced NFkappaB activation in human HT-29 cells assessed as inhibition of p65 nuclear translocation at 10 uM pretreated for 6 hrs followed by TNFalpha stimulation for 15 mins by immunohistochemical analysis. It counts as cell-based. The settings on record: time 6.25 hrs.

In test [8] the test system is Mus musculus. Briefly: Anti-inflammatory activity in AOM/DSS-induced BALB/c mouse model inflammatory bowel disease assessed as reduction in colon length at 5 to 10 mg/kg, ip pretreated with AOM for 7 days further replaced with DSS for 7 days and repeated for 2 times followed by every 2 days compound treatment for […] starting from day 50 and measured once a week. The settings on record: dose 5-10 mg/kg, time 21.0 day. In kind it is functional, organism-based.

For test [9], the target named is T1, Nuclear factor NF-kappa-B complex (Homo sapiens). Briefly: Inhibition of TNF-alpha induced NFkappaB activation in human HCT-116 cells assessed as inhibition of IkappaBalpha phosphorylation at 1 to 10 uM pretreated for 24 hrs followed by TNFalpha stimulation for 10 mins by Western blot analysis. In kind it is cell-based. The settings on record: dose 1-10 µM, time 1450.0 min.

T1 sequence (P19838 whole entry, looked up): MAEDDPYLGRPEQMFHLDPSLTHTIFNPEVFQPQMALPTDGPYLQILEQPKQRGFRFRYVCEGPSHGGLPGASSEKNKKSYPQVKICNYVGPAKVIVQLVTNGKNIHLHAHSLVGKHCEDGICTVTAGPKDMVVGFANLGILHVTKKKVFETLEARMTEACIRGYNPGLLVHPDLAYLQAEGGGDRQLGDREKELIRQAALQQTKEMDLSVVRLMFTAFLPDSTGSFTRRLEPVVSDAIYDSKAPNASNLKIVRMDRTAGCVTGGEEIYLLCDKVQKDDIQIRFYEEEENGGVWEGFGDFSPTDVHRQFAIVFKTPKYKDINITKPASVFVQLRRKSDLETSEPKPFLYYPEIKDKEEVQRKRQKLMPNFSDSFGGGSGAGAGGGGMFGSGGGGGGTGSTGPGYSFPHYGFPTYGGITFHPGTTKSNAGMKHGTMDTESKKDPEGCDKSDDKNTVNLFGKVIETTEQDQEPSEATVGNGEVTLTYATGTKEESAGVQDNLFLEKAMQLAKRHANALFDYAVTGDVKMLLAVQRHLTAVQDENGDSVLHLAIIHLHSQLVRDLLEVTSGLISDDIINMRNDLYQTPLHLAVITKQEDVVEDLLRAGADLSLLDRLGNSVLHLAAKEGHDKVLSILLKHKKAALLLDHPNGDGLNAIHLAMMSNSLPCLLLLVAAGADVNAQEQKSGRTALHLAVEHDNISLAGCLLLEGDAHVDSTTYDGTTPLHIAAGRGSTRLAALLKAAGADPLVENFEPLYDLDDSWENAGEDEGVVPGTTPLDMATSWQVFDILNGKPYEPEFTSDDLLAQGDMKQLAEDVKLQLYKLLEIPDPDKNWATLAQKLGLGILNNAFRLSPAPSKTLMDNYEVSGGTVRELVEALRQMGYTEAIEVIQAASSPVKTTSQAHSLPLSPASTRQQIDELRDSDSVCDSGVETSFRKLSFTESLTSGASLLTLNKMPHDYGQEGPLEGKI
T1 sequence (Q00653 whole entry, looked up): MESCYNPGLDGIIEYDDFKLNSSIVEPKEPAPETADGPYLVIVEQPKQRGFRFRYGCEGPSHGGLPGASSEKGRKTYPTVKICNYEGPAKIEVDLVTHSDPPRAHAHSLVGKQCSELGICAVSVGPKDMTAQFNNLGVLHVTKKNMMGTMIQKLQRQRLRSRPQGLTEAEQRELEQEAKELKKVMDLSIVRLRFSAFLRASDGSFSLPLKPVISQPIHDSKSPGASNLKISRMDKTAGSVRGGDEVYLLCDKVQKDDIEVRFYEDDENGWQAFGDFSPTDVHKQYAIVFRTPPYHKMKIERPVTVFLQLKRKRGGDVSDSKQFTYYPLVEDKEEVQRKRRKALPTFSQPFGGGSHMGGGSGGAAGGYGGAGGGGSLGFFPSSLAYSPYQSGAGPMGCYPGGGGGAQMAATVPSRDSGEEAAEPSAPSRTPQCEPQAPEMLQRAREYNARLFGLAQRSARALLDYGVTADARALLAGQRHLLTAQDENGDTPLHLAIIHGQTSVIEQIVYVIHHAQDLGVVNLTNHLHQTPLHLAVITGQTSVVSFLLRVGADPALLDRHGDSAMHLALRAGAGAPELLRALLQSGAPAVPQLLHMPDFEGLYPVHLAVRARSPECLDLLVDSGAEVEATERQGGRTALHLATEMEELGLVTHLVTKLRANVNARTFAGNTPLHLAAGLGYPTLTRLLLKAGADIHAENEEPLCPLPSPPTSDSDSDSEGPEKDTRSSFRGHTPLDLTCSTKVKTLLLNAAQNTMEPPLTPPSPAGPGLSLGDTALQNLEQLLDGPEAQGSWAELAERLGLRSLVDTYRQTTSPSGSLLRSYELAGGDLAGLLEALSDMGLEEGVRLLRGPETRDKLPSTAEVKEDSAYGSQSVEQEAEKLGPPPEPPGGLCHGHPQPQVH
T1 sequence (Q04206 whole entry, looked up): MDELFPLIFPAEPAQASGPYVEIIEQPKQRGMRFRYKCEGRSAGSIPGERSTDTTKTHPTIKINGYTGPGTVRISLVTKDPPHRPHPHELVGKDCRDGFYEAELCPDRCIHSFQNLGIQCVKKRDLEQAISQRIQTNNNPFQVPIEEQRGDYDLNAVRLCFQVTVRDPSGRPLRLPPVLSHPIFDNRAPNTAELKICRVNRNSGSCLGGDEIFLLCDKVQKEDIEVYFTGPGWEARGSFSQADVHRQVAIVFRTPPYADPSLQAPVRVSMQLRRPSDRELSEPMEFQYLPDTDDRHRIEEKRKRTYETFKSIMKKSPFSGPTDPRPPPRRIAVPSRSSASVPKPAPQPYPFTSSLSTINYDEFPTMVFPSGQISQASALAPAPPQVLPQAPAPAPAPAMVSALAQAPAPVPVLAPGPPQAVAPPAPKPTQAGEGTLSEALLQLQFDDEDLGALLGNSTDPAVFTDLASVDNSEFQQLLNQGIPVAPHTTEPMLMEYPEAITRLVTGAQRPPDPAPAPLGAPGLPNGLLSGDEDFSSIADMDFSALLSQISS

On to `C[C@@H]1CC[C@H]2[C@H](C(=O)c3c(O)c([C@@]4(O)CC[C@@H](O)[C@H]5O[C@H]54)cn(O)c3=O)[C@H](C)C=C[C@@H]2C1`, for which the result in [1] was inactive. Moreover, the viability at 0.25 µM in test [2] was determined as 85.9%. Moreover, the Activity in test [3] turned out to be 28.3%. The result in [4] and in test [8] was Active. Also, the inhibition entry in [5], in test [7] and in test [9] was “Active” in each case. For the same molecule, the IC50 in [6] is 570 nM.

The IC50 is the point on the concentration scale where inhibition reaches its midpoint.
